What was measured:
[1] = system: intestinal absorption of cholesterol; assay: Test B: intestinal absorption of cholesterol in rats; assay type: in vivo, rat (male Wistar); conditions: Rattus norvegicus; per os, rats fasted 24 h, triton WR 1339 IV, 3H-cholesterol in serum; read-out: ED50 (quantity of compound inhibiting the intestinal absorption of cholesterol by 50%)
Experimental: Test B: measurement of intestinal absorption of cholesterol in rats; […]; one hour later, […]; three hours later, 1 ml of blood was taken from the retro-orbital sinus: the blood radioactivity determined on 0.1 ml of serum represented the measurement of the absorption of ^3H-cholesterol. The results were expressed in effective dose 50 (ED50) in mg per kg of animal and represented the quantity of compound inhibiting the intestinal absorption of cholesterol by 50%.

[2] = system: hepatic ACAT; assay: Test A: in vitro hepatic ACAT inhibition in rat liver microsomes; assay type: biochemical, rat (male Wistar); conditions: 14C-oleyl coenzyme A, read-out: IC50 (concentration of compound inhibiting the ACAT activity by 50%)
Experimental: Test A: measurement of in vitro hepatic ACAT inhibition in rats: male Wistar rats weighing 220-250 g were sacrificed by cervical dislocation; the liver was removed and homogenised to prepare the microsomal fraction by ultracentrifugation; these microsomes were incubated with ^14C-oleyl coenzyme A according to the method described by P. J. GILLIES et al., Exp. and Mol. Pathol. 1986, 44, 329-339; lipids were extracted from the incubate with a methanol-chloroforme mixture and ^14C-oleyl cholesterol was separated by TLC; the latter represented the measurement of the ACAT activity and the results were expressed in inhibitory concentration 50 (IC50) representing the concentration of compound inhibiting the ACAT activity by 50%.

[3] = system: rabbit fed a 0.5% cholesterol enriched diet; assay: Test C: hypercholesterolemia model, cholesterol-fed rabbit; assay type: in vivo; conditions: dose 0.1 mg/kg, oral
Experimental: (§1) Test C: hypercholesterolemia model; claim 1 compounds were tested by oral route in animals subjected to a cholesterol-rich diet;

[4] = system: male Wistar rat fed a 2.5% cholesterol enriched diet; assay: Test C: hypercholesterolemia model, cholesterol-fed rat; assay type: in vivo; conditions: dose 0.78 mg/kg, oral
Experimental: as §1

melting point [°C]	IC50 [2] [nM]	SMILES	ED50 [1] [mg/kg]	total cholesterol decreased ([3]; 0.5% cholesterol diet for 15 days, treated simultaneously) [%]	lipoprotein fraction on which the effect was observed ([3]; cholesterol-fed rabbit)	total cholesterol lowered ([4]; 2.5% cholesterol diet for 8 days, treated for 2 days) [%]	lipoprotein fraction on which the effect was observed ([4]; cholesterol-fed rat)
204 to 206		CSc1cc(C)nc(SC)c1NC(=O)CC=CC1=C(c2ccccc2)c2ccccc2OC1 [Example 17, N-[2,4-Dimethylthio-6-methyl-3-pyridyl]-4-(4-phenyl-2H-3-benzo[b]pyranyl)but-3-enamide]					
218 to 220	74	CSc1cc(C)nc(SC)c1NC(=O)CC1=C(c2ccccc2)c2ccccc2CC1 [Example 4]	0.038				
	94	CSc1cc(C)nc(SC)c1NC(=O)CC1=C(c2ccccc2)c2ccccc2OC1 [Example 1, N-[2,4-Dimethylthio-6-methyl-3-pyridyl]-2-(4-phenyl-2H-3-benzo[b]pyranyl)acetamide]	0.005	70	mainly observed on VLDL	50	mainly observed on VLDL
234 to 236	31	CSc1cc(C)nc(SC)c1NC(=O)CC1=C(c2ccc(F)cc2)c2ccccc2OC1 [Example 6]	0.023				

Reference: patent US6509362B2, “N-phenylamide and N-pyridylamide derivatives, method of preparing them and pharmaceutical compositions containing them” (Merck Patent Gesellschaft mit Beschraenkter Haftung, priority 1997, dated 2003)
